Measured values published in US7071335B2, “2-pyridinyl-1-piperazine therapeutic agents useful for treating pain” (Euro-Celtique S.A., priority 2002, dated 2006).

Columns and labels:
Format in all cases: cell-based
[1] = biological target: T1, Human VR1 Receptor (Homo sapiens, UniProt Q8NER1); test: Inhibition of pH-induced activation of VR1; details: mean ± SEM, n = number of experiments
From the text: (§1) Methods for assaying compounds capable of inhibiting VR1 are well known to those skilled in the art, for example, those methods disclosed in U.S. Pat. No. 6,239,267 to Duckworth et al.; U.S. Pat. No. 6,406,908 to McIntyre et al.; or U.S. Pat. No. 6,335,180 to Julius et al.

[2] = biological target: T1, Human VR1 Receptor; test: Inhibition of capsaicin-induced activation of VR1; details: mean ± SEM, n = number of experiments
From the text: as §1

[3] = biological target: T2, rat mGluR5 (Rattus norvegicus, UniProt P31424); test: CHO assay: calcium mobilization flux (FLIPR) in CHO-rat mGluR5 cells in the presence of glutamate; details: at a concentration of 10 μM, 10 uM glutamate
T2 construct: expressed in transfected cells; host or cells: CHO cells (CHO-rat mGluR5, kept under Geneticin selection)
Method: 40,000 CHO-rat mGluR5 cells/well were plated into 96 well plate (Costar 3409, Black, clear bottom, 96 well, tissue culture treated) for an overnight incubation in Dulbelcco's Modified Eagle's Medium (DMEM, pH 7.4) and supplemented with glutamine, 10% FBS, 1% Pen/Strep, and 500 ug/ml Geneticin. CHO-rat mGluR5 cells were washed and treated with Optimem medium and incubated for 1–4 hours prior to loading cells. […] The plates containing the CHO-rat mGluR5 cells were then transferred to Fluorometric Imaging Plate Reader (FLIPR) (commercially available from Molecular Devices Corporation of Sunnyvale, Calif.) for the assessment of calcium mobilization flux in the presence of glutamate and in the presence or absence of test compounds. After monitoring fluorescence for 15 seconds to establish a base line, DMSO solutions containing various concentrations of the test compound diluted in loading buffer (0.05 mL of 4× dilutions for the competition curves) were added to the cell plate and fluorescence was monitored for 2 minutes. […] Plate fluorescence is then monitored for an additional 60 seconds after agonist addition. […] In each experiment, fluorescence is monitored as a function of time and the data analyzed using Microsoft Excel and GraphPad Prism. […] In each experiment each data point was determined two times.

T1 sequence (Q8NER1 whole entry): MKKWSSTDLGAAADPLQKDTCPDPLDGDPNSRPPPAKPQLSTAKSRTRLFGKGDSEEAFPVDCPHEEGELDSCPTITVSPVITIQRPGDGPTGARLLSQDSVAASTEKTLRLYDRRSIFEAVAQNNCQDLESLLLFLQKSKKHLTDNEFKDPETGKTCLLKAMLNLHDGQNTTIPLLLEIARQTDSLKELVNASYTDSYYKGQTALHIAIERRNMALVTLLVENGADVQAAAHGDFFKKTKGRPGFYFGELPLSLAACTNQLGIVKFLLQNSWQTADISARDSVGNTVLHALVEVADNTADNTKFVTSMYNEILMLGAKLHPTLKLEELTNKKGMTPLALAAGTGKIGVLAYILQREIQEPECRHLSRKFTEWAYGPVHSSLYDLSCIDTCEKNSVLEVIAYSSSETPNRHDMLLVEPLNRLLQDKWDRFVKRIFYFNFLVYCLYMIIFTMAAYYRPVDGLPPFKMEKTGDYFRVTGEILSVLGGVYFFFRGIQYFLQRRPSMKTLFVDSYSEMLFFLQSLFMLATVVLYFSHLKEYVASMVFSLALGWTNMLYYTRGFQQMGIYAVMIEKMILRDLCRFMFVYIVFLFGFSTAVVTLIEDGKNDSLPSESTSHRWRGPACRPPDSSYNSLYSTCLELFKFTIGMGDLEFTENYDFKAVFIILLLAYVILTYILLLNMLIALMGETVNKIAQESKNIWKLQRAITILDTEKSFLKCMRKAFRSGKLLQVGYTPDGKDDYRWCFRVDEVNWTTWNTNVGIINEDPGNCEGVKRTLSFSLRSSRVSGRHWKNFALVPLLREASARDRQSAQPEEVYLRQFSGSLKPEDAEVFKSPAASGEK
T2 sequence (P31424 21-1203): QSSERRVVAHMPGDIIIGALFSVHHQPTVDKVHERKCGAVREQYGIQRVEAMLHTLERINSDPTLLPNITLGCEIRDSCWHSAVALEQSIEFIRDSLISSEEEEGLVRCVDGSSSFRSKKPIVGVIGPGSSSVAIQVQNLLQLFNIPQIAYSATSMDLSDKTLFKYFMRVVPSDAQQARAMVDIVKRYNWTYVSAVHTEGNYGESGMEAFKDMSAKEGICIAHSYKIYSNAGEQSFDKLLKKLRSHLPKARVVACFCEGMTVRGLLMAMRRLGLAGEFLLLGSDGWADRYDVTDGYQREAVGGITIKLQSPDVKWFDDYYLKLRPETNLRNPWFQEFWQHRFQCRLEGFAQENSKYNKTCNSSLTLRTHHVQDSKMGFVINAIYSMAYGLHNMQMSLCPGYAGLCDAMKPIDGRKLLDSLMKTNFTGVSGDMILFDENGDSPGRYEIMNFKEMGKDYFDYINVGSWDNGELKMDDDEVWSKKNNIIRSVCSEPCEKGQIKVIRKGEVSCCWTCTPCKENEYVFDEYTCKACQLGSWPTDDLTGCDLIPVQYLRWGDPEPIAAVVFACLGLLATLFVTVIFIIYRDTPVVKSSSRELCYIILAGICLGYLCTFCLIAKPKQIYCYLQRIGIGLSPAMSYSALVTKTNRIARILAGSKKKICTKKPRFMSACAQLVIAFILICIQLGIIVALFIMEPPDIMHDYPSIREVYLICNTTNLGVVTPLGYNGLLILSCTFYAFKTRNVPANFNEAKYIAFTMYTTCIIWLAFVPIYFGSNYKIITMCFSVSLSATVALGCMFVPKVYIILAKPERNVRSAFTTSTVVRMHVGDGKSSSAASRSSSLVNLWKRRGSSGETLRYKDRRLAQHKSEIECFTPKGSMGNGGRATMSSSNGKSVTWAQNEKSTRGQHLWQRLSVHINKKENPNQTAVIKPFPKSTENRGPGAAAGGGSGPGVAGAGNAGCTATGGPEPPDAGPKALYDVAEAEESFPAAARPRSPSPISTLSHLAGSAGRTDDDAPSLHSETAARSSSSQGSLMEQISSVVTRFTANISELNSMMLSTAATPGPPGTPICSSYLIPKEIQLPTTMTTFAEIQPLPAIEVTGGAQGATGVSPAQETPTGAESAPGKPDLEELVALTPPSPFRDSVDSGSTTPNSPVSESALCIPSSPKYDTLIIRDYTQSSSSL

Row | Compound | IC50 [1] | IC50 [2] | inhibition of mGluR5 [3]
1 | CC(C)(C)c1ccc(NC(=O)N2CCN(c3ncccc3F)CC2)cc1 | 5.4 ± 2.5 nM | 1.3 ± 1.2 nM | –
2 | Cc1cccc(CCNC(=O)N2CCN(c3ncccc3Cl)C[C@H]2C)c1C | – | – | inhibits
